The values that follow are results of earlier work, collected in US7662811B2, “1,2,3,4-tetrahydropyrazin-2-yl acetamides and methods of use” (Amgen Inc., priority 2004, dated 2010).

No end group written: not given here.

Take RPPGFSPFR [BK]: the “half-life of BK in plasma” value is given as “approximately 17 seconds”.
